The text below walks through data of PubChem BioAssay (NCI).

Values joined by “and” are separate entries in the source; they are usually repeats but may differ in a detail not shown here. Identical values can stand only once.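 48-hour exposure; five concentrations; linearly interpolated endpoints. The concentration for 50% growth inhibition is given as GI50. TGI: concentration producing complete growth inhibition.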 Where a SMILES comes first, the peptide text is derived from it. The star is where a group is joined. Cbz = O=C(OCc1ccccc1)*; OBn = c1ccc(CO*)cc1

Assay in all cases: NCI tumour cell line growth inhibition, 48 h
Assay [1] relates to A549 NSCLC.
The test system of assay [2] is HCT-116 colon.
The subject of assay [3] is HCT-15 colon.
Assay [4] concerns MOLT-4 leukemia.
The test system of assay [5] is OVCAR-4 ovarian.
Assay [6] concerns SF-295 CNS.
The test system of assay [7] is SK-MEL-2 melanoma.
Assay [8] relates to HCC-2998 colon.
Assay [9] concerns PC-3 prostate.

For the compound `COc1cccc(/C=N/[N-]C(N)=O)c1[O-].[Ni+2].[OH3+].c1cnc2c(c1)ccc1cccnc12`, the TGI in assay [1], in assay [2], in assay [3], in assay [4], in [5] and in assay [6] was > 100 µM in each case. Besides, in assay [7], the TGI is > 100 µM.

As to `[N-]=[N+]=NCc1cccc(Nc2cc(=O)[nH]c(=O)[nH]2)c1`, the TGI in assay [1], in assay [8], in [2], in assay [3], in [4] and in assay [6] was > 100 µM throughout. Further, in assay [7], the TGI was > 100 µM.

As for `COC(=O)C(Cc1ccc(O)cc1)NC(=O)C(CC(=O)OCc1ccccc1)NC(=O)OCc1ccccc1` (centres undefined) (Cbz-Asp(OBn)-Tyr-OMe; configuration not given here), the TGI in assay [1] is 37 µM; in [8] it was 31.5 µM; in assay [2] it was 35.1 µM; in [3], 33.7 µM; in [4], 61.5 µM; in assay [9], 31.6 µM. In assay [7], this compound registered a TGI of 34.8 µM.

Regarding `OC1(c2cc3ccccc3s2)CCCCC1`, the TGI is > 100 µM in assay [1]; > 100 µM in assay [8]; > 100 µM in assay [2]; > 100 µM in [3]; 67.4 µM in assay [4]; > 100 µM in [5]. For the same compound, in assay [6], the TGI was > 100 µM.

For the compound `Cc1ccc(C(C2C(=O)N(C)C(=O)N(C)C2=O)C(F)(F)C(=O)N(C)C)cc1` (centres undefined), the TGI in [1], in [8], in assay [2], in [3], in assay [5] and in [9] was > 100 µM throughout. Besides, the TGI in assay [6] and in assay [7] was > 100 µM each time.

`NCCNc1cccc2ccccc12`: the TGI in assay [1], in assay [8], in [2], in [3], in assay [5] and in assay [6] was > 100 µM in each case. Further, in assay [7], the TGI was > 100 µM.

In the case of `CCCCc1ccc(Nc2ncc3[nH]cnc3n2)cc1`, the TGI is 53.2 µM in assay [1]; 37.8 µM in assay [8]; 34.5 µM in [2]; 38.5 µM in assay [3]; > 100 µM in assay [4]; 80.1 µM in assay [5]. The values for the TGI in assay [6] and in assay [7] were 38 µM and 53.3 µM, respectively.

`CC(CO)C1C[C@H](O)[C@@]2(C)CC(=O)C=C(CO)[C@@H]2C1` (some centres undefined): the TGI in [1], in assay [8], in assay [2], in assay [3], in assay [4] and in assay [5] was > 100 µM each time. The TGI in [6] and in assay [7] was > 100 µM each time.

As to `COC(=O)c1cc(C#N)[nH]c1-c1ccc(C)s1`, the TGI in assay [1], in [8], in [2], in assay [3], in assay [4] and in assay [5] was > 100 µM in each case. Further, the TGI is 46.4 µM in [9] and > 100 µM in assay [6].

As for `c1ccc2c(c1)CCc1cc3cc4c(nc3nc1-2)-c1ccccc1CC4`, the TGI in assay [1], in assay [8], in assay [2], in [3], in assay [4] and in assay [6] was > 100 µM each time.

For the compound `N#C[S-].[Nd+3].c1ccc(-c2ccccn2)nc1.c1ccc(-c2ccccn2)nc1.c1ccc(-c2ccccn2)nc1`, the GI50 is 4.94 µM in assay [1]; 7.87 µM in [8]; 8.4 µM in assay [2]; 3.82 µM in assay [3]; 49.8 µM in assay [5]; 2.35 µM in [6]. For the same compound, the GI50 in assay [7] is 8.47 µM. Moreover, the TGI in assay [1] was > 100 µM; in assay [8], > 100 µM; in assay [2], > 100 µM; in assay [3], > 100 µM; in assay [5] it was > 100 µM; in assay [6], 5.8 µM. In addition, the TGI in [7] was 51.5 µM.

With `Fc1ccc(N=NN2CCCC2)cc1`, the TGI in [1], in assay [8], in assay [2], in assay [3], in assay [4] and in assay [5] was > 100 µM in each case. Also, the TGI in [6] and in assay [7] was > 100 µM in each case.

In the case of `NC(=O)C#CC(N)=O`, the GI50 in assay [1] is 49.4 µM; in assay [2], 15.1 µM and 37.5 µM; in assay [3] it was 20 µM and 26.2 µM and > 100 µM; in [4] it was 3.31 µM and 14.2 µM; in assay [5], 30.7 µM and 21.6 µM and > 100 µM. Besides, the TGI in assay [1] was 173 µM and 189 µM and > 100 µM; in [8], 179 µM and > 100 µM; in assay [2], 29.5 µM and > 100 µM; in [3], 76.2 µM and 100 µM and > 100 µM; in [4] it was 18.6 µM and 37.5 µM; in [5], 87.5 µM and 55 µM and > 100 µM. For the same compound, the TGI was 26.2 µM and > 31.6 µM in assay [6]; 30.2 µM and 26.4 µM and 42.8 µM in assay [7].

On to `C=CCNC(=O)NC1=CSC2=NC(=O)C3(NN12)c1ccccc1-c1ccccc13`, for which the TGI in assay [1], in [8], in [2], in assay [3], in assay [4] and in assay [5] was > 10 µM each time. The TGI in assay [9] and in [6] was > 10 µM each time.

Regarding `CNC(=O)c1cc(NC(=O)N(CCC#N)CCN(C(=O)N[C@@H](Cc2ccccc2)C(=O)N[C@@H](CC(C)C)C(=O)NC)c2ccccc2)ccc1OC`, the TGI in [1], in [2], in assay [3], in [4], in assay [5] and in [9] was > 100 µM throughout. The TGI in assay [6] is > 100 µM; in [7], > 74.5 µM.

Take `O=C(c1ccccc1)c1ccc2nc(-c3c(Cl)c(Cl)c(Cl)c(Cl)c3C(=O)N/N=C/c3ccccc3)[nH]c2c1`: the TGI is > 100 µM in [1]; > 100 µM in assay [2]; > 100 µM in assay [3]; 54.1 µM in assay [4]; 83.5 µM in [5]; > 100 µM in [9]. The TGI in assay [6] was found to be 88.7 µM; in [7] it was 67.5 µM.

Turning to `Cc1ccc(N2CCc3c(C)c(C#N)c4nc5ccccc5n4c32)cc1`, the TGI in assay [1], in assay [8], in assay [2], in assay [3], in assay [5] and in [9] was > 100 µM in each case. Further, the TGI in assay [6] and in assay [7] was > 100 µM throughout.

For the compound `O=C(NC1CCN(Cc2ccccc2)CC1)c1cc2nc(-c3ccc(Cl)s3)cc(C(F)(F)F)n2n1`, the GI50 was 79 µM in assay [1]; 4.84 µM in assay [2]; > 100 µM in assay [4]; 12.7 µM in assay [5]; > 100 µM in [6]. The TGI is > 100 µM in assay [1]; > 100 µM in assay [2]; > 100 µM in assay [4]; 49.3 µM in assay [5]; > 100 µM in assay [6].

As to `Oc1ccc(SCc2cc(O)c(O)c(O)c2)cc1`, the TGI in [1] is > 100 µM; in [2], 34.2 µM; in assay [3], > 100 µM; in assay [4], > 100 µM; in [9], > 100 µM; in assay [6] it was 29.8 µM. For the same compound, the TGI in [7] is > 100 µM.

On to `C1CCC(OC2CSC2)OC1` (centres undefined), for which the TGI in assay [1], in assay [8], in assay [2], in [3], in assay [4] and in [5] was > 100 µM each time. Moreover, the TGI in [9] and in [6] was > 100 µM each time.

As to `CCOC(=O)CNC(=O)C(C)NC(=O)C(NC(=O)CC(c1ncc[nH]1)c1ncc[nH]1)C(C)CC` (centres undefined), the TGI in assay [1], in [8], in assay [2], in assay [3], in assay [4] and in assay [5] was > 100 µM in each case. Also, the TGI in [6] and in [7] was > 100 µM in each case.

Regarding `COc1ccc2c(c1)n([O-])c(C#N)c(N1CCN(c3ccc([N+](=O)[O-])cc3)CC1)[n+]2=O`, the TGI in assay [1], in assay [8], in [2], in assay [3], in assay [5] and in assay [9] was > 100 µM throughout. The TGI is > 48.1 µM in assay [6] and > 100 µM in assay [7].

With `COP(=O)(OC)C(Cc1c[nH]c2ccccc12)NC(=O)OCc1ccccc1` (centres undefined), the TGI in assay [1], in assay [8], in assay [2], in assay [3], in assay [5] and in [9] was > 100 µM throughout. For the same compound, the TGI in assay [6] and in assay [7] was > 100 µM in each case.
